PubChem BioAssay AID248 (DTP/NCI, 2004)
Toxic doses and inconclusive results are not listed. Cut-off read from the data, not from the text of the source: active = T/C of 150% or more; inactive = T/C below 125%.

Tested on: L1210 leukemia ip in BDF1 mice, survival T/C
Experiment: NCI In Vivo Anticancer Drug Screen. Data for tumor model L1210 Leukemia (intraperitoneal) in B6D2F1 (BDF1) mice
Conditions: endpoint: mean survival time, higher = longer survival
How it was run: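 Tumor cells were implanted, animals were treated, and survival was followed. The result divides the treated measurement by the vehicle-control measurement.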

[1] = dose: 100.0 mg/kg/injection, schedule: Q01DX009 (ip), vehicle: Klucel (hydroxypropylcellulose) (HPC)
[2] = dose: 200.0 mg/kg/injection, schedule: Q01DX009 (ip), vehicle: Klucel (hydroxypropylcellulose) (HPC)
[3] = dose: 100.0 mg/kg/injection, schedule: Q01DX001 (ip), vehicle: carboxymethylcellulose (CMC)
[4] = dose: 200.0 mg/kg/injection, schedule: Q01DX001 (ip), vehicle: carboxymethylcellulose (CMC)
[5] = dose: 400.0 mg/kg/injection, schedule: Q01DX001 (ip), vehicle: carboxymethylcellulose (CMC)
[6] = dose: 100.0 mg/kg/injection, schedule: Q04DX003 (ip), vehicle: saline with Tween-80
[7] = dose: 100.0 mg/kg/injection, schedule: Q01DX009 (ip), vehicle: saline with Tween-80
[8] = dose: 200.0 mg/kg/injection, schedule: Q01DX009 (ip), vehicle: saline with Tween-80
[9] = dose: 100.0 mg/kg/injection, schedule: Q04DX002 (ip), vehicle: saline
[10] = dose: 200.0 mg/kg/injection, schedule: Q04DX002 (ip), vehicle: saline
[11] = dose: 100.0 mg/kg/injection, schedule: Q04DX003 (ip), vehicle: Klucel (hydroxypropylcellulose) (HPC)
[12] = dose: 200.0 mg/kg/injection, schedule: Q04DX003 (ip), vehicle: Klucel (hydroxypropylcellulose) (HPC)
[13] = dose: 400.0 mg/kg/injection, schedule: Q04DX003 (ip), vehicle: Klucel (hydroxypropylcellulose) (HPC)
[14] = dose: 100.0 mg/kg/injection, schedule: Q01DX001 (ip), vehicle: saline
[15] = dose: 200.0 mg/kg/injection, schedule: Q01DX001 (ip), vehicle: saline
[16] = dose: 400.0 mg/kg/injection, schedule: Q01DX001 (ip), vehicle: saline
[17] = dose: 200.0 mg/kg/injection, schedule: Q04DX003 (ip), vehicle: saline with Tween-80
[18] = dose: 400.0 mg/kg/injection, schedule: Q04DX003 (ip), vehicle: saline with Tween-80
[19] = dose: 100.0 mg/kg/injection, schedule: Q04DX002 (ip), vehicle: Klucel (hydroxypropylcellulose) (HPC)
[20] = dose: 200.0 mg/kg/injection, schedule: Q04DX002 (ip), vehicle: Klucel (hydroxypropylcellulose) (HPC)
[21] = dose: 100.0 mg/kg/injection, schedule: Q01DX005 (ip), vehicle: saline
[22] = dose: 200.0 mg/kg/injection, schedule: Q01DX005 (ip), vehicle: saline
[23] = dose: 100.0 mg/kg/injection, schedule: Q01DX001 (ip), vehicle: Klucel (hydroxypropylcellulose) (HPC)
[24] = dose: 200.0 mg/kg/injection, schedule: Q01DX001 (ip), vehicle: Klucel (hydroxypropylcellulose) (HPC)
[25] = dose: 400.0 mg/kg/injection, schedule: Q01DX001 (ip), vehicle: Klucel (hydroxypropylcellulose) (HPC)

Measured: T/C

O=C(Nc1cccc(Cl)c1Cl)N(CCO)C1CCCCC1
inactive: [1] 107 % of control | [2] 96 % of control | dose: 400.0 mg/kg/injection, schedule: Q01DX009 (ip), vehicle: Klucel (hydroxypropylcellulose) (HPC) 94 % of control

CCC(=O)O[C@H]1CC[C@H]2[C@@H]3[C@H](C)CC4=CC(=O)CC[C@]4(C)[C@H]3CC[C@]12C
inactive: [3] 97 % of control | [4] 94 % of control | [5] 90 % of control

N#C/C=C/C#N
inactive: [6] 92 % of control

CCOC(=O)COCC(C)=O
inactive: dose: 50.0 mg/kg/injection, schedule: Q01DX009 (ip), vehicle: saline with Tween-80 92 % of control | [7] 96 % of control | [8] 96 % of control

CN(C)CCN=C(N)N[N+](=O)[O-]
inactive: [9] 110 % of control | [10] 96 % of control | dose: 400.0 mg/kg/injection, schedule: Q04DX002 (ip), vehicle: saline 100 % of control

Cc1ccccc1OP(=O)(Oc1ccccc1C)Oc1ccccc1C
inactive: dose: 50.0 mg/kg/injection, schedule: Q01DX001 (ip), vehicle: carboxymethylcellulose (CMC) 104 % of control | [3] 101 % of control | [4] 95 % of control | [5] 93 % of control

CSc1nc(N=[N+]=[N-])n(C)n1
inactive: dose: 100.0 mg/kg/injection, schedule: Q04DX002 (ip), vehicle: saline with Tween-80 95 % of control | dose: 200.0 mg/kg/injection, schedule: Q04DX002 (ip), vehicle: saline with Tween-80 95 % of control | dose: 400.0 mg/kg/injection, schedule: Q04DX002 (ip), vehicle: saline with Tween-80 92 % of control

COc1ccc2c(c1)C13CCCCC1C(C2)N(CC1(c2ccccc2)CC1)CC3 (centres undefined)
inactive: [1] 98 % of control | [11] 96 % of control | [2] 90 % of control | [12] 93 % of control | [13] 101 % of control

CCN(CC)CC[n+]1ccccc1
inactive: [9] 93 % of control | [10] 100 % of control

O=C(NCCCl)NC(CO)C(=O)O (centres undefined)
inactive: dose: 100.0 mg/kg/injection, schedule: Q04DX003 (ip), vehicle: saline 98 % of control | dose: 200.0 mg/kg/injection, schedule: Q04DX003 (ip), vehicle: saline 93 % of control | dose: 400.0 mg/kg/injection, schedule: Q04DX003 (ip), vehicle: saline 95 % of control

O=C(CCCC(=O)NNC(=O)Nc1ccccc1Cl)NNC(=O)Nc1ccccc1Cl
inactive: dose: 50.0 mg/kg/injection, schedule: Q01DX001 (ip), vehicle: saline 102 % of control | [14] 96 % of control | [15] 100 % of control | [16] 93 % of control

CCOc1ccn(C2CCOC2=O)c(=O)n1 (centres undefined)
inactive: dose: 100.0 mg/kg/injection, schedule: Q01DX009 (ip), vehicle: saline 100 % of control | dose: 100.0 mg/kg/injection, schedule: Q04DX003 (ip), vehicle: alcohol 104 % of control | dose: 200.0 mg/kg/injection, schedule: Q01DX009 (ip), vehicle: saline 97 % of control | dose: 200.0 mg/kg/injection, schedule: Q04DX003 (ip), vehicle: alcohol 102 % of control | dose: 400.0 mg/kg/injection, schedule: Q01DX009 (ip), vehicle: saline 100 % of control | dose: 400.0 mg/kg/injection, schedule: Q04DX003 (ip), vehicle: alcohol 102 % of control

CCOC(=O)C(=Cc1c[nH]c2ccccc12)C(=O)OCC
inactive: [7] 108 % of control | [6] 96 % of control | [8] 90 % of control | [17] 96 % of control | dose: 400.0 mg/kg/injection, schedule: Q01DX009 (ip), vehicle: saline with Tween-80 92 % of control | [18] 96 % of control

CCOC1OC(CO)C(O)C(O)C1O (centres undefined)
inactive: [14] 102 % of control | [15] 98 % of control | [16] 109 % of control

CC(C)=CC/C(C)=C/C=N\Nc1ccc([N+](=O)[O-])cc1[N+](=O)[O-]
inactive: [6] 98 % of control | [17] 95 % of control | [18] 93 % of control

O=c1c2ccccc2[nH]c2ncccc12
inactive: [19] 96 % of control | [20] 92 % of control

CCC1CN2CCc3cc(OC)c(OC)cc3C2CC1CC1c2cc(OC)c(OC)cc2CCN1C(=O)CNC(=O)OC(C)(C)C (centres undefined)
inactive: [14] 97 % of control | [15] 101 % of control | [16] 109 % of control

CCOC(=O)CNC(=O)C1OC(n2cnc3c(N)ncnc32)C2OC(C)(C)OC12 (centres undefined)
inactive: [21] 95 % of control | [22] 92 % of control

CC(=O)OC(C)C(=O)Nc1ccccc1 (centres undefined)
inactive: [23] 93 % of control | [24] 89 % of control | [25] 96 % of control

CC(C)CCCC(C)C1CCC2C3CC(O)C4=CC(O)CCC4(C)C3CCC12C (centres undefined)
inactive: dose: 75.0 mg/kg/injection, schedule: Q01DX001 (ip), vehicle: other 92 % of control | dose: 150.0 mg/kg/injection, schedule: Q01DX001 (ip), vehicle: other 93 % of control

CCC(CN)(c1ccccc1)c1ccccc1
inactive: dose: 50.0 mg/kg/injection, schedule: Q01DX001 (ip), vehicle: other 96 % of control | dose: 100.0 mg/kg/injection, schedule: Q01DX001 (ip), vehicle: other 104 % of control | dose: 200.0 mg/kg/injection, schedule: Q01DX001 (ip), vehicle: other 102 % of control | dose: 400.0 mg/kg/injection, schedule: Q01DX001 (ip), vehicle: other 96 % of control

O=C(COc1ccc(Cl)cc1)Nc1ccccc1
inactive: [19] 109 % of control | [20] 98 % of control | dose: 400.0 mg/kg/injection, schedule: Q04DX002 (ip), vehicle: Klucel (hydroxypropylcellulose) (HPC) 103 % of control

CC[n+]1ccc(/C=C\c2cccc([N+](=O)[O-])c2)cc1
inactive: dose: 25.0 mg/kg/injection, schedule: Q01DX009 (ip), vehicle: Klucel (hydroxypropylcellulose) (HPC) 91 % of control | dose: 50.0 mg/kg/injection, schedule: Q01DX009 (ip), vehicle: Klucel (hydroxypropylcellulose) (HPC) 91 % of control | [1] 98 % of control | [11] 93 % of control

CC1(C)OC2COC(c3[nH]nc(C(N)=O)c3C(=O)NN)C2O1 (centres undefined)
inactive: [21] 103 % of control | [22] 97 % of control

O=C1c2cscc2Cc2ccsc21
inactive: dose: 100.0 mg/kg/injection, schedule: Q01DX001 (ip), vehicle: saline with Tween-80 88 % of control | dose: 200.0 mg/kg/injection, schedule: Q01DX001 (ip), vehicle: saline with Tween-80 91 % of control

COC(=O)C(C)(N)Cc1ccc(O)c(C)c1 (centres undefined)
inactive: [1] 96 % of control | [11] 108 % of control | [2] 100 % of control | [12] 101 % of control | [13] 95 % of control

COC1OC(COC(c2ccccc2)(c2ccccc2)c2ccccc2)C(O)C(O)C1NC(C)=O (centres undefined)
inactive: [23] 96 % of control | [24] 96 % of control | [25] 101 % of control

CCN(CC)CCNC(c1ccc(OC)cc1)C(Cl)(Cl)Cl (centres undefined)
inactive: dose: 75.0 mg/kg/injection, schedule: Q01DX001 (ip), vehicle: saline 97 % of control | dose: 150.0 mg/kg/injection, schedule: Q01DX001 (ip), vehicle: saline 91 % of control

CCCC[N+](C)(C)CCCOC(=O)C1C2CC3OC(=O)C1C3C2 (centres undefined)
inactive: dose: 12.5 mg/kg/injection, schedule: Q01DX003 (ip), vehicle: saline with Tween-80 97 % of control | dose: 25.0 mg/kg/injection, schedule: Q01DX003 (ip), vehicle: saline with Tween-80 100 % of control | dose: 50.0 mg/kg/injection, schedule: Q01DX003 (ip), vehicle: saline with Tween-80 97 % of control | dose: 50.0 mg/kg/injection, schedule: Q04DX003 (ip), vehicle: saline with Tween-80 101 % of control | [6] 103 % of control
